Results taken from ChEMBL document CHEMBL4513160, “CO-ADD screening of MMV (CH) - Small Polar Library”.
In brackets after ≈: the same amount, converted by molar mass.

Key:
Pseudomonas aeruginosa [1] = test: Antibacterial activity against Pseudomonas aeruginosa PAO397 [PAO1 d(mexAB-oprM) d(mexCD-oprJ) d(mexEF-oprN) d(mexJKL) d(mexXY) d(opmH)] (CO-ADD:GN_211); MIC in CAMBH media using NBS plates, by OD(600); type: functional; details: ASSAY_TEST Inhibition of Bacterial Growth, detection method Absorption (OD600), MEDIA CAMHB, plate type 384well, CORNING #3640, time 18 hr
Pseudomonas aeruginosa [2] = test: microbe, parasite or virus in culture; details: ATCC 27853, 18 h, ASSAY_TEST Inhibition of Bacterial Growth, detection method Absorption (OD600), MEDIA CAMHB, plate type 384well, NBS, CORNING #3640
Description: Antibacterial activity against Pseudomonas aeruginosa ATCC 27853 (CO-ADD:GN_042); MIC in CAMBH media using NBS plates, by OD(600)

Acinetobacter baumannii = test: microbe, parasite or virus in culture; details: ATCC 19606, 18 h, ASSAY_TEST Inhibition of Bacterial Growth, detection method Absorption (OD600), MEDIA CAMHB, plate type 384well, NBS, CORNING #3640
Description: Antibacterial activity against Acinetobacter baumannii ATCC 19606 (CO-ADD:GN_034); MIC in CAMBH media using NBS plates, by OD600

Row | Structure (SMILES) | MIC (Pseudomonas aeruginosa [1]) [µM] | MIC (Pseudomonas aeruginosa [2]) [µM] | MIC (Acinetobacter baumannii) [µM]
1 | Cc1cccc(OCC(O)Cn2ccnc2C)c1 (configuration not stated) | > 300 | > 300 | > 300
2 | Cn1c(CN)nc2cc(Cl)ccc21 | > 300 | > 300 | > 300
3 | Cc1c(C(=O)NC2=NCCS2)oc2ccccc12 | > 300 | > 300 | > 300
4 | CC1COC2(CCN(C(=O)c3ccc(Cl)s3)CC2)O1 (configuration not stated) | > 300 | > 300 | > 300
5 | CCOc1ncc(C(=O)NCC(C)(O)C(C)C)cc1Cl (configuration not stated) | > 300 | > 300 | > 300
6 | OCCNCCNCc1ccc(-c2cccc(Cl)c2)o1 | > 300 | > 300 | > 300
7 | CN1CCCN(c2nc3ccccc3cc2CO)CC1 | > 300 | > 300 | > 300
8 | COc1ccc(NC(=O)c2ccc(S(N)(=O)=O)o2)cc1 | 200 (≈ 59.3 µg/mL) | > 300 | > 300
9 | CC(C)CCC(=O)N[C@@H]1CN(C)C[C@H]1CN(C)C | > 300 | > 300 | > 300
10 | CC(CO)NC(=O)Nc1nc(-c2ccccc2)ns1 (configuration not stated) | 200 (≈ 55.7 µg/mL) | > 300 | > 300
11 | O=C(c1ccc(Br)s1)N1CCN(c2ccccn2)CC1 | > 300 | > 300 | > 300
12 | CCc1cccc(S(=O)(=O)N2CCC(NC)C2)c1 (configuration not stated) | > 300 | > 300 | > 300
13 | CCCn1cnnc1CNC | > 300 | > 300 | > 300
14 | CN(C)C(=O)CNC(=O)NCc1cc(F)ccc1Br | > 300 | > 300 | > 300
15 | CN1CCCC1CCSc1nc(N)c(C#N)cc1C#N (configuration not stated) | > 300 | > 300 | > 300
16 | CN(C(=O)CN)c1ccc(-c2ccccc2)cc1 | > 300 | > 300 | > 300
17 | CN(C)C(=O)CCNc1ccnc2ccc(Cl)cc12 | > 300 | > 300 | > 300
18 | CN(Cc1ccc(O)cc1)C(=O)c1cc(Cl)c[nH]1 | > 300 | > 300 | > 300
19 | COC(CN)CC(C)C (configuration not stated) | > 300 | > 300 | > 300
20 | NS(=O)(=O)NCC1CCN(c2cccc(Br)c2)C1 (configuration not stated) | > 300 | > 300 | > 300
21 | Cc1ccc2c(N)noc2n1 | 135 (≈ 20.1 µg/mL) | 135 (≈ 20.1 µg/mL) | > 300
22 | CN(C)C(=O)Nc1cc(F)cc(F)c1 | > 300 | > 300 | > 300

Row | Structure (SMILES) | MIC (Pseudomonas aeruginosa [1]) [µM] | MIC (Pseudomonas aeruginosa [2]) [µM] | MIC (Acinetobacter baumannii) [µM]
23 | CS(=O)(=O)c1ccc(CN)o1 | > 300 | > 300 | > 300
24 | Clc1cccnc1N1CCC(Nc2cccnc2)CC1 | > 300 | > 300 | > 300
25 | N#Cc1cc(N2CCC[C@@H]2CO)nc2ccccc12 | > 300 | > 300 | > 300
26 | Nc1nc(-c2ccc3c(c2)CCCC(=O)N3)cs1 | > 300 | > 300 | > 300
27 | NCC1CCOc2ccccc21 (configuration not stated) | > 300 | > 300 | > 300
28 | OCCNCCNCc1ccc(-c2ccccc2F)o1 | > 300 | > 300 | > 300
29 | O=C(Nc1ccnc(CO)c1)c1ccc(F)cc1I | > 300 | > 300 | > 300
30 | Cc1ccc(C(N)c2ccccn2)cc1 (configuration not stated) | > 300 | > 300 | > 300
31 | COc1cc(F)cc(NCC(=O)NCc2ccco2)c1 | > 300 | > 300 | > 300
32 | COCC(C)NCc1ccccc1CN1CCCC1=O (configuration not stated) | > 300 | > 300 | > 300
33 | CC[C@H](CO)Nc1ccnc2cc(Br)cnc12 | > 300 | > 300 | > 300
34 | CS(=O)(=O)CCNc1ccnc2ccc(Br)cc12 | > 300 | > 300 | > 300
35 | C1CCC(C2CCNCC2)OC1 (configuration not stated) | > 300 | > 300 | > 300
36 | O=C(NCCO)Nc1nc2ccccc2s1 | > 300 | > 300 | > 300
37 | OCCCNc1ccnc2ccc(Cl)cc12 | > 300 | > 300 | > 300
38 | CCc1nnc(NC(=O)c2cc(OC)ccn2)s1 | > 300 | > 300 | > 300
39 | NC(=O)CSc1nc(-c2ccc(Br)cc2)c[nH]1 | 300 (≈ 93.7 µg/mL) | > 300 | > 300
40 | NCC(=O)N1CCCC(CCc2ccc(F)cc2F)C1 (configuration not stated) | > 300 | > 300 | > 300
41 | NCC(=O)N1CCCC(CCc2ccc(F)c(F)c2)C1 (configuration not stated) | > 300 | > 300 | > 300
42 | NCc1cnn(-c2cccc(Cl)c2)c1 | > 300 | > 300 | > 300
43 | CC(Nc1ccc(C#N)cn1)c1ccc2c(c1)OCO2 (configuration not stated) | > 300 | > 300 | > 300
44 | CCS(=O)(=O)NCC(N)c1ccc(C(C)C)cc1 (configuration not stated) | > 300 | > 300 | > 300

Row | Structure (SMILES) | MIC (Pseudomonas aeruginosa [1]) [µM] | MIC (Pseudomonas aeruginosa [2]) [µM] | MIC (Acinetobacter baumannii) [µM]
45 | COc1cccc(CNCc2ccccn2)c1 | > 300 | > 300 | > 300
46 | Cc1ccc(C)c2c(=O)cc(CN3CCC(N)C3)[nH]c12 (configuration not stated) | > 300 | > 300 | > 300
47 | CN(C)c1nc(Cl)c(CN)s1 | 200 (≈ 38.3 µg/mL) | 200 (≈ 38.3 µg/mL) | > 300
48 | O=C(NC[C@H]1CCCN1)c1ccc2cccc(Cl)c2n1 | 300 (≈ 86.9 µg/mL) | > 300 | > 300
49 | COc1ccc2c(c1)CCCC(=O)N2 | > 300 | > 300 | > 300
50 | CC(CSc1n[nH]c(-c2ccccn2)n1)CS(C)(=O)=O (configuration not stated) | > 300 | > 300 | > 300
51 | OC1(CNCc2ccc(Br)c3cccnc23)CCOC1 (configuration not stated) | > 300 | > 300 | > 300
52 | CCOc1ccc(Cl)cc1CCNS(=O)(=O)N(C)C | > 300 | > 300 | > 300
53 | Cc1ccc(C2(O)CCNC2)cc1 (configuration not stated) | > 300 | 300 (≈ 53.2 µg/mL) | > 300
54 | COc1ccc(C2NC(=O)c3cccnc3N2)cc1F (configuration not stated) | > 300 | > 300 | > 300
55 | O=C(NCc1cccs1)c1cnsn1 | > 300 | > 300 | > 300
56 | CSC(C)(C)COC(=O)c1ccc(-n2ccnc2)nc1 | > 300 | > 300 | > 300
57 | CC(C)NC(=O)NCC1(N2CCOCC2)CCSC1 (configuration not stated) | > 300 | > 300 | > 300
58 | CCOc1cc(Cl)ccc1CN | > 300 | > 300 | > 300
59 | Cc1cc(C)c(C#N)c(N2C[C@H](C3CC3)[C@@H](N)C2)n1 | > 300 | > 300 | > 300
60 | Ic1nnnn1-c1ccccc1 | 25 (≈ 6.8 µg/mL) | 60 (≈ 16.3 µg/mL) | > 300
61 | COc1ccc(F)c(N2CCNCC2)c1 | > 300 | > 300 | > 300
62 | O=C(CSc1ncn[nH]1)Nc1ncc(Br)s1 | > 300 | > 300 | > 300
63 | Cc1cccc(NC(C)c2ccc(S(N)(=O)=O)cc2)n1 (configuration not stated) | > 300 | > 300 | > 300
64 | COc1cccc(-c2ncc(CN)s2)c1 | > 300 | > 300 | > 300
